Data reported in ChEMBL document CHEMBL3588835, “Discovery of a new chemical series of BRD4(1) inhibitors using protein-ligand docking and structure-guided design” (Bioorg Med Chem Lett, 2015).

Tests used:
[1] = target: T1, Bromodomain-containing protein 4 (Homo sapiens, UniProt O60885); assay: Inhibition of HTRF binding to N-terminal His-tagged BRD4(1) (unknown origin) using biotinylated tetra-acetylated histone H4 peptide and Cryptate-labeled streptavidin incubated for 2 hrs by TR-FRET assay
[2] = target: T1, Bromodomain-containing protein 4; assay: Inhibition of HTRF binding to N-terminal His-tagged BRD4(1) (unknown origin) at 50 uM using biotinylated tetra-acetylated histone H4 peptide and Cryptate-labeled streptavidin incubated for 2 hrs by TR-FRET assay
[3] = target: T2, Bromodomain-containing protein 2 (Homo sapiens, UniProt P25440); assay: Inhibition of HTRF binding to N-terminal His-tagged BRD2(2) (unknown origin) at 50 uM using biotinylated tetra-acetylated histone H4 peptide and Cryptate-labeled streptavidin incubated for 2 hrs by TR-FRET assay
Target sequence in this assay (P25440 whole entry, looked up): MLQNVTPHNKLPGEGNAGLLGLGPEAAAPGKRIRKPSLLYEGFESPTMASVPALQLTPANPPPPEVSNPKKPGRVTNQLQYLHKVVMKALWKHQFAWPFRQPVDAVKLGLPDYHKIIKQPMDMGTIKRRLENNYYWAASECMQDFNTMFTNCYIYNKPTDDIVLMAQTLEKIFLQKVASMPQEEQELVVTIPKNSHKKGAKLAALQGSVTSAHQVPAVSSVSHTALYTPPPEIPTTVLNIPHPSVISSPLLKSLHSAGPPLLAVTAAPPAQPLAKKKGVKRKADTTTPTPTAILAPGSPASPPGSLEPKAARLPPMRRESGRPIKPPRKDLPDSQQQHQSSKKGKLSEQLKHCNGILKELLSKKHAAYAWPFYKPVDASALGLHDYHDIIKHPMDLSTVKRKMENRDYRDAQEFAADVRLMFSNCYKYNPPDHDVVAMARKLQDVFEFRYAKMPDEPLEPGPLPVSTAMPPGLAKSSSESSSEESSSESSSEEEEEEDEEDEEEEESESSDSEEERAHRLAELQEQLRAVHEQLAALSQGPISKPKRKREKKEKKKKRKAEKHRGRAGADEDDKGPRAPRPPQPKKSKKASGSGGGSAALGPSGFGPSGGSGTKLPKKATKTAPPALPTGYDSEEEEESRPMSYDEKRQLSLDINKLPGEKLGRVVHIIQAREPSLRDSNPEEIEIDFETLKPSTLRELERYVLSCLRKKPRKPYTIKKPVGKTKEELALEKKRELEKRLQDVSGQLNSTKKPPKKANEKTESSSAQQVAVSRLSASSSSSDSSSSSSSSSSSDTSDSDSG

[4] = target: T2, Bromodomain-containing protein 2; assay: Inhibition of HTRF binding to N-terminal His-tagged BRD2(2) (unknown origin) using biotinylated tetra-acetylated histone H4 peptide and Cryptate-labeled streptavidin incubated for 2 hrs by TR-FRET assay
Target sequence in this assay (P25440 whole entry): as the sequence (P25440 whole entry, looked up) above

Row | IC50 [1] [µM] | inhibition [2] [%] | inhibition [3] [%] | IC50 [4] [µM] | Compound
1 | 44 | – | – | 12 | N#Cc1cccc(-c2cncc(C(=O)N3CC(=O)Nc4ccccc43)c2)c1
2 | – | 0 | 0 | – | Cc1ccc(CC(=O)N2CC(=O)Nc3ccccc32)cc1
3 | – | 0 | 25 | – | COc1ccc(CC(=O)N2CC(=O)Nc3ccccc32)cc1OC
4 | 44 | – | – | 12 | COc1ccc(/C=C(/C(=O)Nc2c(C)noc2C)c2ccc(OC)cc2)cc1
5 | – | 0 | 0 | – | CSc1ccc(Cl)c(C(=O)N2CC(=O)Nc3ccccc32)c1
6 | – | > 25 | > 50 | – | O=C1CN(C(=O)c2cccc(C(F)(F)F)c2)c2ccccc2N1
7 | 26 | – | – | 20 | O=C1CN(C(=O)c2cncc(-c3ccccc3)c2)c2ccccc2N1
8 | – | 0 | 0 | – | Cc1ccc(-c2cc(C(=O)N3CC(=O)Nc4ccccc43)[nH]n2)cc1
9 | – | 0 | 25 | – | CC(C)Sc1ccccc1C(=O)N1CC(=O)Nc2ccccc21
10 | 47 | – | – | – | O=C1CN(C(=O)c2cncc(-c3ccc(F)cc3)c2)c2ccccc2N1
11 | 13 | – | – | 24 | COc1ccc(/C=C(/C(=O)N2CC(=O)Nc3ccccc32)c2ccc(NC(C)=O)cc2)cc1
12 | 13 | – | – | 13 | COc1ccc(/C=C(/C(=O)N2CC(=O)Nc3cc(OC)ccc32)c2ccc(OC)cc2)cc1
13 | – | 0 | 0 | – | O=C1CN(C(=O)Cc2cccs2)c2ccccc2N1
14 | 16 | – | – | 13 | COc1ccc(/C=C(/C(=O)N2CC(=O)Nc3ccccc32)c2ccc(OC)cc2)cc1

The remaining lines, values behind:

Row | Compound | IC50 [1] [µM] | inhibition [2] [%] | inhibition [3] [%] | IC50 [4] [µM]
15 | O=C1CN(C(=O)c2cncc(-c3cccc(O)c3)c2)c2ccccc2N1 | 29 | – | – | –
16 | CS(=O)(=O)N(CC(=O)N1CC(=O)Nc2ccccc21)c1ccccc1F | – | 0 | 0 | –
17 | O=C1CN(C(=O)Cc2ccc(Cl)cc2)c2ccccc2N1 | – | 0 | 25 | –
18 | COc1cc(NCc2ccccc2)cc(C(=O)N2CC(=O)Nc3ccccc32)c1 | > 50 | – | – | –
19 | COc1cccc(-c2cncc(C(=O)N3CC(=O)Nc4ccccc43)c2)c1 | 25 | – | – | –
20 | CSc1ccccc1C(=O)N1CC(=O)Nc2ccccc21 | – | > 25 | > 50 | –
21 | COc1ccc(/C=C(/C(=O)N2CC(=O)Nc3cc(OC)ccc32)c2ccccc2)cc1 | 34 | – | – | > 50
22 | COc1ccc(/C=C(/C(=O)N2CC(=O)Nc3ccccc32)c2cccs2)cc1 | 13 | – | – | 23
23 | O=C1CN(C(=O)c2cncc(-c3ccc(Cl)cc3)c2)c2ccccc2N1 | 49 | – | – | –
24 | COC(=O)c1ccc(/C=C(/C(=O)N2CC(=O)Nc3ccccc32)c2ccccc2)cc1 | 25 | – | – | 25
25 | COc1cccc(OCC(=O)N2CC(=O)Nc3ccccc32)c1 | – | 0 | 25 | –
26 | COc1cc(C(=O)N2CC(=O)Nc3ccccc32)cc(-c2ccccc2)c1 | 13 | – | – | –
27 | O=C1CN(C(=O)CCc2ccccc2Cl)c2ccccc2N1 | – | 0 | 25 | –
28 | CSc1ccc(CC(=O)N2CC(=O)Nc3ccccc32)cc1 | – | 0 | 0 | –
29 | COc1ccc(/C(=C\c2ccncc2)C(=O)N2CC(=O)Nc3ccccc32)cc1 | 25 | – | – | 5
30 | CC(=O)Nc1cccc(/C=C(/C(=O)N2CC(=O)Nc3ccccc32)c2ccccc2)c1 | 40 | – | – | 10
31 | COc1ccc(/C=C(/C(=O)N2CC(=O)Nc3ccccc32)c2ccc(OC)c(OC)c2)cc1 | 18 | – | – | 26
32 | COc1ccc(/C=C(/C(=O)N2CC(=O)Nc3ccccc32)c2ccc(C)c(C)c2)cc1 | 14 | – | – | > 50
33 | CCc1ccc(CC(=O)N2CC(=O)Nc3ccccc32)cc1 | – | 0 | 0 | –
34 | COc1ccc(/C=C(/C(=O)N2CC(=O)Nc3ccccc32)c2ccccc2)cc1 | 26 | > 25 | > 50 | 22
35 | O=C1CN(C(=O)Cc2cccc3ccccc23)c2ccccc2N1 | – | > 25 | > 50 | –
36 | O=C1CN(C(=O)C(c2ccccc2)c2ccccc2)c2ccccc2N1 | – | > 25 | > 50 | –
37 | O=C1CN(C(=O)c2sc3ccccc3c2Cl)c2ccccc2N1 | – | 0 | 25 | –
38 | CCn1ccc(C(=O)N2CC(=O)Nc3ccccc32)n1 | – | > 25 | > 50 | –
39 | COc1ccc(/C=C(/C(=O)N2CC(=O)Nc3ccccc32)c2ccc(OC)cc2OC)cc1 | > 50 | – | – | > 50
40 | NC(=O)c1ccc(/C=C(/C(=O)N2CC(=O)Nc3ccccc32)c2ccccc2)cc1 | 46 | – | – | 49
41 | O=C1CN(C(=O)c2cccc(F)c2)c2ccccc2N1 | – | 0 | 25 | –
42 | Cc1cccc(OCCC(=O)N2CC(=O)Nc3ccccc32)c1 | – | 0 | 25 | –
43 | O=C1CN(C(=O)c2cc(-c3cccc(Cl)c3)[nH]n2)c2ccccc2N1 | – | 0 | 0 | –
44 | O=C1CN(C(=O)c2cc(O)cc(-c3ccccc3)c2)c2ccccc2N1 | 9 | – | – | –
